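These data come from cells grown in 96-well plates and exposed to compound for 48 hours at five concentrations. GI50: concentration for 50% inhibition of growth. TGI marks complete inhibition of growth.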
Key:
Test in all cases: NCI-60 cell line screen, 48 h
[1] = test system: HOP-92 NSCLC
[2] = test system: EKVX NSCLC
[3] = test system: COLO 205 colon
[4] = test system: HOP-62 NSCLC
[5] = test system: SK-MEL-28 melanoma
[6] = test system: U251 CNS
[7] = test system: KM12 colon
[8] = test system: NCI-H522 lung
[9] = test system: UACC-257 melanoma
[10] = test system: SK-MEL-2 melanoma
[11] = test system: MOLT-4 leukemia
[12] = test system: IGROV1 ovarian
[13] = test system: MDA-MB-435
[14] = test system: OVCAR-3 ovarian
[15] = test system: BT-549 breast
[16] = test system: HL-60(TB) leukemia
[17] = test system: HCT-15 colon
[18] = test system: CCRF-CEM leukemia
[19] = test system: SNB-19 CNS
[20] = test system: RXF 393 renal
[21] = test system: T-47D breast
[22] = test system: HT29 colon
[23] = test system: OVCAR-8 ovarian
[24] = test system: SK-MEL-5 melanoma
[25] = test system: UO-31 renal
[26] = test system: SK-OV-3 ovarian
[27] = test system: A498 renal
[28] = test system: M14 melanoma
[29] = test system: SF-539 CNS
[30] = test system: TK-10 renal
[31] = test system: SF-268 CNS
[32] = test system: A549 NSCLC
[33] = test system: HCC-2998 colon
[34] = test system: LOX IMVI melanoma
[35] = test system: NCI-H460 lung
[36] = test system: 786-0 renal
[37] = test system: SNB-75 CNS
[38] = test system: MCF7 breast
[39] = test system: MDA-MB-231 breast
[40] = test system: K-562 leukemia
[41] = test system: HS 578T breast
[42] = test system: PC-3 prostate
[43] = test system: RPMI-8226 leukemia
[44] = test system: SF-295 CNS
[45] = test system: OVCAR-4 ovarian
[46] = test system: OVCAR-5 ovarian
[47] = test system: DU-145 prostate
[48] = test system: CAKI-1 renal
[49] = test system: SW-620 colon
[50] = test system: NCI/ADR-RES ovarian
[51] = test system: NCI-H226 lung
[52] = test system: HCT-116 colon
[53] = test system: UACC-62 melanoma
[54] = test system: ACHN renal
[55] = test system: NCI-H23 lung
[56] = test system: SR leukemia
[57] = test system: SN12C renal

In the case of `CN(C)C(=O)OC(Cn1cncn1)(Cn1cncn1)c1ccc(Cl)cc1Cl`, the TGI [1] is reported as > 100 µM, the TGI [2] is reported as > 100 µM and the TGI [3] is reported as > 100 µM. The TGI [4] was > 100 µM, the TGI [5] was > 100 µM and the TGI [6] was > 100 µM. The TGI [7] was > 100 µM, the TGI [8] was > 100 µM and the TGI [9] was > 100 µM. For the same molecule, the TGI [10] was > 100 µM, the TGI [11] was > 100 µM and the TGI [12] was > 100 µM. For the same molecule, the TGI [13] was > 100 µM, the TGI [14] was > 100 µM and the TGI [15] was > 100 µM. For the same molecule, the TGI [16] was > 100 µM, the TGI [17] was > 100 µM and the TGI [18] was > 100 µM. The TGI [19] was > 100 µM, the TGI [20] was > 100 µM and the TGI [21] was > 100 µM. For the same molecule, the TGI [22] was > 100 µM, the TGI [23] was > 100 µM and the TGI [24] was > 100 µM. For the same molecule, the TGI [25] was > 100 µM, the TGI [26] was > 100 µM and the TGI [27] was > 100 µM. The TGI [28] was > 100 µM, the TGI [29] was > 100 µM and the TGI [30] was > 100 µM. The TGI [31] was > 100 µM, the TGI [32] was > 100 µM and the TGI [33] was > 100 µM. The TGI [34] was > 100 µM, the TGI [35] was > 100 µM and the TGI [36] was > 100 µM. For the same molecule, the TGI [37] was > 100 µM, the TGI [38] was > 100 µM and the TGI [39] was > 100 µM. For the same molecule, the TGI [40] was > 100 µM, the TGI [41] was > 100 µM and the TGI [42] was > 100 µM. The TGI [43] was > 100 µM, the TGI [44] was > 100 µM and the TGI [45] was > 100 µM. For the same molecule, the TGI [46] was > 100 µM, the TGI [47] was > 100 µM and the TGI [48] was > 100 µM. The TGI [49] was > 100 µM, the TGI [50] was > 100 µM and the TGI [51] was > 100 µM.
`COc1cccc(/C=C/C(=O)c2ccc(Cl)cc2Cl)c1` gave a GI50 [1] of 0.0134 µM, a TGI [1] of 9.44 µM and a GI50 [2] of 13.5 µM. For the same molecule, the TGI [2] was 25.8 µM, the GI50 [52] was 4.94 µM and the TGI [52] was 19.1 µM. The GI50 [3] was 8.85 µM, the TGI [3] was 18.4 µM and the GI50 [53] was 8.06 µM. The TGI [53] was 15.5 µM, the GI50 [5] was 12.9 µM and the TGI [5] was 30.2 µM. For the same molecule, the GI50 [6] was 9.19 µM, the TGI [6] was > 50 µM and the GI50 [54] was 14.3 µM. The TGI [54] was 39.2 µM, the GI50 [7] was 17.2 µM and the TGI [7] was > 50 µM. The GI50 [8] was 18 µM, the TGI [8] was > 50 µM and the GI50 [9] was 9.33 µM. The TGI [9] was 17.4 µM, the GI50 [10] was 20.3 µM and the TGI [10] was > 50 µM. For the same molecule, the GI50 [11] was 0.773 µM, the TGI [11] was > 50 µM and the GI50 [12] was 15 µM. For the same molecule, the TGI [12] was > 50 µM, the GI50 [13] was 11.1 µM and the TGI [13] was 28.6 µM. For the same molecule, the GI50 [14] was 10.9 µM, the TGI [14] was 25.2 µM and the GI50 [15] was 11 µM. The TGI [15] was 22.4 µM, the GI50 [16] was 8.9 µM and the TGI [16] was > 50 µM. The GI50 [17] was 13.9 µM, the TGI [17] was > 50 µM and the GI50 [55] was 9.72 µM. For the same molecule, the TGI [55] was 28.7 µM, the GI50 [56] was 0.833 µM and the TGI [56] was > 50 µM. The GI50 [19] was 8.07 µM, the TGI [19] was 16.8 µM and the GI50 [20] was 9.44 µM. The TGI [20] was 20.5 µM, the GI50 [22] was 15.1 µM and the TGI [22] was > 50 µM. For the same molecule, the GI50 [23] was 9.46 µM, the TGI [23] was 22.7 µM and the GI50 [24] was 9.38 µM. The TGI [24] was 17.6 µM, the GI50 [25] was 17.4 µM and the TGI [25] was > 50 µM. The GI50 [27] was 11.9 µM, the TGI [27] was 21 µM and the GI50 [28] was 10.3 µM. The TGI [28] was 22.3 µM, the GI50 [29] was 12.2 µM and the TGI [29] was 23 µM. For the same molecule, the GI50 [30] was 12.8 µM, the TGI [30] was > 50 µM and the GI50 [31] was 11.2 µM. The TGI [31] was 27.4 µM, the GI50 [32] was 10.5 µM and the TGI [32] was 22.7 µM. The GI50 [34] was 15.3 µM, the TGI [34] was > 50 µM and the GI50 [35] was 11.9 µM. For the same molecule, the TGI [35] was 40.2 µM, the GI50 [36] was 12.8 µM and the TGI [36] was 40.7 µM. The GI50 [37] was 13.9 µM, the TGI [37] was 36.7 µM and the GI50 [57] was 8.72 µM. For the same molecule, the TGI [57] was 16.5 µM, the GI50 [38] was 7.84 µM and the TGI [38] was 47.1 µM. It also gave a GI50 [39] of 8.11 µM, a TGI [39] of 15.9 µM and a GI50 [40] of 3.22 µM. The TGI [40] was 26.9 µM, the GI50 [41] was 22.3 µM and the TGI [41] was > 50 µM. It also gave a GI50 [42] of 8.92 µM, a TGI [42] of 20.9 µM and a GI50 [43] of 1.1 µM. For the same molecule, the TGI [43] was 3.86 µM, the GI50 [44] was 28.2 µM and the TGI [44] was > 50 µM. For the same molecule, the GI50 [45] was 10.9 µM, the TGI [45] was 41 µM and the GI50 [46] was 13.6 µM. It also gave a TGI [46] of 43.7 µM, a GI50 [47] of 9.42 µM and a TGI [47] of 17.3 µM. For the same molecule, the GI50 [48] was 13.1 µM, the TGI [48] was 29.6 µM and the GI50 [49] was 1.82 µM. The TGI [49] was 7.62 µM, the GI50 [50] was 11.6 µM and the TGI [50] was 33.1 µM. For the same molecule, the GI50 [51] was 9.79 µM and the TGI [51] was 25.7 µM.

From PubChem BioAssay (NCI)
